# Counter-ions that a name gives are not always drawn.
# Experiment: Interaction of perfume components with cyclodextrin (CD)
# Assay type: physicochemical
# Settings: perfume component with cyclodextrin
# Description: The following table illustrates the molecular weight property of some of the preferred perfume versus non-preferred perfume components.
# Examples of Perfume Components for CD Interaction
row,Molecule,CD interaction
1,CC(C=O)Cc1ccc(C(C)C)cc1 (centres unmarked) [Cymal],strong
2,CCOC(=O)c1ccccc1C(=O)OCC [Diethyl Phthalate],weak
3,CC(=O)OC1CC2CC1C1CC=CC21 (centres unmarked) [Flor Acetate],strong
4,CCC(=O)OC1CC2CC1C1CC=CC21 (centres unmarked) [Frutene],strong
5,CC1COCc2cc3c(cc21)C(C)(C)C(C)C3(C)C (centres unmarked) [Galaxolide],weak
6,CCCCCCOC(=O)c1ccccc1O [Hexyl Salicylate],weak
7,CCCCCCC(C=O)=Cc1ccccc1 [Hexyl cinnamic Aldehyde],weak
8,CC(=O)C1(C)CC2=C(CCCC2(C)C)CC1C (centres unmarked) [Iso-E Super],weak
9,CCCCCCCCCCCCCC(=O)OC(C)C [Iso-propyl Myristate],weak
10,CC(=O)C(C)=C(C)C(C)C(C)(C)C (centres unmarked) [Koavone],strong
11,"CC(C=O)Cc1ccc(C(C)(C)C)cc1 (centres unmarked) [Lilial, Lilial (p-t-bucinal)]",strong
12,CC(C)(O)CCCC1=CCC(C=O)CC1 (centres unmarked) [Lyral],weak
13,CCCCCC1C(=O)CCC1CC(=O)OC (centres unmarked) [Methyl Dihydro Jasmonate],weak
14,O=C(Cc1ccccc1)OCCc1ccccc1 [Phenyl-Ethyl-Phenyl Acetate],weak
15,CC(=O)OC(C)(C)C1CC=C(C)CC1 (centres unmarked) [Terpinyl Acetate],significant
16,"CC(=O)OC1CCC(C(C)(C)C)CC1 (centres unmarked) [Vertenex, para-tert-butylcyclohexyl acetate]",strong
17,CC(=O)/C=C/C1C(C)=CCCC1(C)C (centres unmarked) [a-ionone],strong
18,a-Me Ionone,strong

# Experiment: not given
# Settings: cited from earlier work
row,Molecule,stability over a wide pH range
1,"Cn1sc2c(c1=O)CCC2 [Promexal, 2-methyl-4,5-trimethylene-4-isothiazolin-3-one]",4-12
2,"O=c1[nH]sc2ccccc12 [Proxel, 1,2-benzisothiazolin-3-one]",4-12

# Experiment: not given
# Settings: in water; cited from earlier work
row,Molecule,solubility in water
1,OCCOc1ccccc1 [2-phenoxyethanol],about 2.67%
2,OCCc1ccccc1 [2-phenylethanol],about 2%
3,"O=[N+]([O-])C1(Br)COCOC1 [Bronidox L, 5-bromo-5-nitro-1,3-dioxane]",about 0.46%
4,"CC1(C)C(=O)N(CO)C(=O)N1CO [DMDM hydantoin, 1,3-bis(hydroxymethyl)-5,5-dimethyl-2,4-imidazolidinedione]",more than 50%
5,OCc1ccccc1 [benzyl alcohol],about 4%
6,"CC(C)(O)C(Cl)(Cl)Cl [chlorobutanol, 1,1,1-Trichloro-2-methylpropan-2-ol]",about 0.8%
7,"[H]/N=C(\N/C(=N/[H])NCCCCCCNC(=N)NC(=N)Nc1ccc(Cl)cc1)Nc1ccc(Cl)cc1 [diacetate salt, 1,1'-hexamethylene bis(5-(p-chlorophenyl)biguanide), reference compound]",about 1.8%
8,"[H]/N=C(\N/C(=N/[H])NCCCCCCNC(=N)NC(=N)Nc1ccc(Cl)cc1)Nc1ccc(Cl)cc1 [digluconate salt, 1,1'-hexamethylene bis(5-(p-chlorophenyl)biguanide), reference compound]",about 70%
9,[Na+].[O-][n+]1ccccc1[S-] [sodium pyrithione],about 50%

# Same assay, conditions: result in words; cited from earlier work
row,Molecule,solubility in water
1,"ClC=CC[N+]12CN3CN(CN(C3)C1)C2.[Cl-] [Dowicil 200, 1-(3-Chlorallyl) -3,5,7-triaza-1-azoniaadamantane chloride]",freely soluble in water

# Experiment: Elevation in surface tension of surfactant solution in the presence of cyclodextrin
# Assay type: physicochemical
# Settings: in the presence of a typical cyclodextrin (about 1% solution)
# Description: Suitable cyclodextrin-compatible surfactants can be readily identified by the absence of effect of cyclodextrin on the surface tension provided by the surfactant. This is achieved by determining the surface tension (in dyne/cm) of aqueous solutions of the surfactant in the presence and in the absence of about 1% of a specific cyclodextrin in the solutions. The aqueous solutions contain surfactant at concentrations of approximately 0.5%, 0.1%, 0.01%, and 0.005%. The cyclodextrin can affect the surface activity of a surfactant by elevating the surface tension of the surfactant solution. If the surface tension at a given concentration in water differs by more than about 10% from the surface tension of the same surfactant in the 1% solution of the cyclodextrin, that is an indication of a strong interaction between the surfactant and the cyclodextrin. The preferred surfactants herein should have a surface tension in an aqueous solution that is different (lower) by less than about 10%, preferably less than about 5%, and more preferably less than about 1% from that of the same concentration solution containing 1% cyclodextrin.
# The cyclodextrin-compatible surfactants described above are either weakly interactive with cyclodextrin (less than 5% elevation in surface tension), or non-interactive (less than 1% elevation in surface tension).
row,Molecule,elevation in surface tension [%]
1,CCCCCCCCCCCCOS(=O)(=O)[O-].[Na+] [sodium dodecyl sulfate],> 10
2,dodecanolpoly(6)ethoxylate,> 10

# Reference: patent EP1212395B1, “IMPROVED METHODS, COMPOSITIONS, AND ARTICLES FOR ODOR CONTROL” (THE PROCTER & GAMBLE COMPANY, priority 1999, dated 2001)
